Results from patent US20100285959A1, “HERBICIDAL MIXTURES” (priority 2006, published 2010).

Assays:
[1] = tested on: giant ragweed (AMBTR); assay: Test 9 field trial, emerged weeds before corn planting; format: in vivo, Ambrosia trifida; details: g a.i./ha: Cpd 2 100, Glyphosate 1540, Paraquat 1150
Procedure: Corn seeds (hybrid ‘Pioneer 34M91 RR’) were planted in mid spring season, about 3.8 cm deep in a silty clay loam soil having a pH of 6.7. Plots were 9.1 m long by 3.0 m. The field was managed using no-till practices. […] Compound 2 and paraquat treatments, alone and in combination, also included a surfactant. Glyphosate, alone and with Compound 2, included ammonium sulfate in the treatment mixture. […] The effects on the weeds in the treated plots and untreated control plots were recorded 7, 14, 23, 30 and 57 days after application. Most of the weed species could not be evaluated at every timing. Corn response was only evaluated 57 days after application. […] Results are the means of the three replicates.

[2] = tested on: wild mustard (SINAR); assay: Test 23 growth chamber, postemergence; format: in vivo, Sinapis arvensis; details: 21 DAA
Procedure: (§1) A test was conducted to evaluate the effects on winter barley (HORVW, Hordeum vulgare L.), winter wheat (TRZAW, Triticum aestivum L.), and several weed species of mixtures of Compound 2 with the commercial herbicides (2,4-dichlorophenoxy)acetic acid (2,4-D) and (4-chloro-2-methylphenoxy)acetic acid (MCPA), auxin mimics. […] Plants were treated postemergence at the 2-4 leaf growth stage, and each treatment was replicated three times. […] Plants were watered as needed. […] Results are means of the three replicates.

[3] = tested on: field violet (VIOAR); assay: Test 23 growth chamber, postemergence; format: in vivo, Viola arvensis; details: 21 DAA
Procedure: as §1

[4] = tested on: common chickweed (STEME); assay: Test 22 growth chamber, postemergence; format: in vivo, Stellaria media; details: 25 DAA
Procedure: as §1, with “stage, except KCHSC, SASKR” for “stage,”, “STEME which were in the 4-8 leaf growth stage. Each” for “each”, “one time.” for “three times.”, “from single” for “means of the three”

[5] = tested on: wild poinsettia (EPHHL); assay: Test 12 field trial, preemergence; format: in vivo, Euphorbia heterophylla; set-up: scale not given here; details: Cpd 2 or Cpd 1 62 g a.i./ha, Diuron 2000 g a.i./ha
Description: (§2) In early-mid spring season, corn seeds (hybrid ‘Pioneer 3041’) were planted 5 cm deep and sugarcane nodes (variety RB-72.454) were planted 10 cm deep in separate plots in a clay soil having 2.6% organic matter and a pH of 5.6. Plots were 24 m long by 1.5 m wide with rows spaced 80 cm (corn) or 140 cm (sugarcane) apart. Corn seeds were spaced 15 cm apart and sugarcane nodes were spaced 10 cm apart within the rows. At the same time, weed seeds were broadcast over the surface of separate plots without a crop, one weed species per plot. The weed plots were rotary tilled to incorporate the weed seeds to a variety of depths. The field was managed using conventional tillage practices.

[6] = tested on: common ragweed (AMBEL); assay: Test 2 field trial, preemergence; format: in vivo, Ambrosia artemisiifolia; set-up: scale not given here
Description: Corn seeds (hybrid ‘Pioneer 31G96’) were planted in mid spring season, 3.8 cm deep in a clay loam soil having 2% organic matter and a pH of 6.6. Plots were 6.1 m long by 3.0 m wide with rows spaced 76 cm apart. Seeds were spaced 15 cm apart within the rows. The field was managed using conventional tillage practices. […] A few of the weed species could not be evaluated at every timing. […] Results are the means of the three replicates.

[7] = tested on: broadleaf buttonweed (BOILF); assay: Test 12 field trial, preemergence; format: in vivo, Borreria latifolia; set-up: scale not given here; details: Cpd 2 or Cpd 1 62 g a.i./ha, Diuron 2000 g a.i./ha
Description: as §2

[8] = tested on: wheat (TRZAW); assay: Test 30 growth chamber, postemergence; format: in vivo, Triticum aestivum
Procedure: A growth chamber test was conducted to evaluate the effects on the plant species wheat (TRZAW, Triticum aestivum L.) and barley (HORVX, Hordeum vulgare L.) with mixtures of Compound 1 and Compound 2 with glycerol. Wheat and barley seeds were planted in a sandy loam soil having 0.9% organic matter and a pH of 6.3. […] Wheat and barley plants were treated postemergence at the two leaf growth stage for Compound 1 and at the three leaf growth stage for Compound 2. Each treatment was replicated one time. […] Plants were watered as needed. […] Colby's Equation was used to determine herbicidal effects expected from the mixtures.

[9] = tested on: common lambsquarters (CHEAL); assay: Test 21 growth chamber, postemergence; format: in vivo, Chenopodium album; details: 19 DAA
Procedure: as §1, with “species,” for “species”, “herbicide” for “herbicides”, “(2,4-D), an” for “(2,4-D) and (4-chloro-2-methylphenoxy)acetic acid (MCPA),”, “mimic.” for “mimics.”, “one time.” for “three times.”, “from single” for “means of the three”

[10] = 18 DAA, g a.i./ha: Cpd 2 25, Atrazine 250
[11] = 18 DAA, g a.i./ha: Cpd 2 50, Atrazine 500
[12] = 18 DAA, g a.i./ha: Cpd 2 75, Atrazine 750
[13] = 18 DAA, g a.i./ha: Cpd 2 100, Atrazine 1000
[14] = 18 DAA, g a.i./ha: Cpd 2 150, Atrazine 1500
[15] = 28 DAA, g a.i./ha: Cpd 2 25, Atrazine 250
[16] = 28 DAA, g a.i./ha: Cpd 2 50, Atrazine 500
[17] = 28 DAA, g a.i./ha: Cpd 2 75, Atrazine 750
[18] = 28 DAA, g a.i./ha: Cpd 2 100, Atrazine 1000
[19] = 28 DAA, g a.i./ha: Cpd 2 150, Atrazine 1500
[20] = 55 DAA, g a.i./ha: Cpd 2 25, Atrazine 250
[21] = 55 DAA, g a.i./ha: Cpd 2 50, Atrazine 500
[22] = 55 DAA, g a.i./ha: Cpd 2 75, Atrazine 750
[23] = 55 DAA, g a.i./ha: Cpd 2 100, Atrazine 1000
[24] = 55 DAA, g a.i./ha: Cpd 2 150, Atrazine 1500
[25] = 2,4-D or MCPA alone 250 g a.i./ha

SMILES | AMBTR Obs ([1]; 7 DAA) | AMBTR Obs ([1]; 14 DAA) | AMBTR Obs ([1]; 57 DAA) | EPHHL Obs ([5]; 15 DAA) | EPHHL Obs ([5]; 29 DAA) | EPHHL Obs ([5]; 48 DAA) | EPHHL Obs ([5]; 61 DAA) | AMBEL Obs [6, 10] | AMBEL Obs [6, 11] | AMBEL Obs [6, 12] | AMBEL Obs [6, 13] | AMBEL Obs [6, 14] | AMBEL Obs [6, 15] | AMBEL Obs [6, 16] | AMBEL Obs [6, 17] | AMBEL Obs [6, 18] | AMBEL Obs [6, 19] | AMBEL Obs [6, 20] | AMBEL Obs [6, 21] | AMBEL Obs [6, 22] | further results
COC(=O)c1nc(C2CC2)nc(N)c1Cl [Compound 2, methyl 6-amino-5-chloro-2-cyclopropyl-4-pyrimidinecarboxylate] | 85% | 83% | 89% | 40 | 60 | 40 | 40 | 18 | 27 | 53 | 70 | 70 | 10 | 48 | 70 | 88 | 97 | 10 | 33 | 42 | Postemergence SINAR Obs ([2]; Cpd 2 alone 4 g a.i./ha): 43; Postemergence SINAR Obs ([2]; Cpd 2 alone 8 g a.i./ha): 53; Postemergence SINAR Obs ([2]; Cpd 2 alone 16 g a.i./ha): 55; Postemergence VIOAR Obs ([3]; Cpd 2 alone 4 g a.i./ha): 60; Postemergence VIOAR Obs ([3]; Cpd 2 alone 8 g a.i./ha): 63; Postemergence VIOAR Obs ([3]; Cpd 2 alone 16 g a.i./ha): 72; Postemergence STEME Obs ([4]; Cpd 2 alone 4 g a.i./ha): 50; Postemergence STEME Obs ([4]; Cpd 2 alone 8 g a.i./ha): 50; Postemergence STEME Obs ([4]; Cpd 2 alone 16 g a.i./ha): 55; AMBEL Obs [6, 23]: 77; AMBEL Obs [6, 24]: 93; BOILF Obs ([7]; 15 DAA): 70; BOILF Obs ([7]; 29 DAA): 60; BOILF Obs ([7]; 48 DAA): 95; BOILF Obs ([7]; 61 DAA): 100; TRZAW Obs ([8]; 17 DAA, Cpd 2 1 g a.i./ha): 20%; TRZAW Obs ([8]; 17 DAA, Cpd 2 4 g a.i./ha): 20%; TRZAW Obs ([8]; 17 DAA, Cpd 2 16 g a.i./ha): 35%; Postemergence CHEAL Obs ([9]; Cpd 2 alone 16 g a.i./ha): 60
O=C(O)CNCP(=O)(O)O [Glyphosate] | 25% | 77% | 85% | – | – | – | – | – | – | – | – | – | – | – | – | – | – | – | – | – | –
O=C(O)COc1ccc(Cl)cc1Cl [2,4-D, (2,4-dichlorophenoxy)acetic acid] | – | – | – | – | – | – | – | – | – | – | – | – | – | – | – | – | – | – | – | – | Postemergence SINAR Obs [2, 25]: 65; Postemergence VIOAR Obs [3, 25]: 63; Postemergence STEME Obs [4, 25]: 55; Postemergence CHEAL Obs ([9]; 2,4-D alone 125 g a.i./ha): 40; Postemergence CHEAL Obs ([9]; 2,4-D alone 250 g a.i./ha): 40
Nc1nc(C2CC2)nc(C(=O)O)c1Cl [Compound 1, 6-amino-5-chloro-2-cyclopropyl-4-pyrimidinecarboxylic acid] | – | – | – | 40 | 70 | 50 | 40 | – | – | – | – | – | – | – | – | – | – | – | – | – | BOILF Obs ([7]; 15 DAA): 70; BOILF Obs ([7]; 29 DAA): 60; BOILF Obs ([7]; 48 DAA): 95; BOILF Obs ([7]; 61 DAA): 95; TRZAW Obs ([8]; 18 DAA, Cpd 1 1 g a.i./ha): 30%; TRZAW Obs ([8]; 18 DAA, Cpd 1 4 g a.i./ha): 35%; TRZAW Obs ([8]; 18 DAA, Cpd 1 16 g a.i./ha): 45%
CCNc1nc(Cl)nc(NC(C)C)n1 [Atrazine, atrazine, reference compound] | – | – | – | – | – | – | – | 20 | 43 | 57 | 40 | 48 | 18 | 69 | 83 | 86 | 98 | 12 | 22 | 63 | AMBEL Obs [6, 23]: 72; AMBEL Obs [6, 24]: 90
